# Laboratory results published in patent publication US20040019082A1, “Reversible infertility in male mice following oral administration of alkylated imino sugars: a non-hormonal approach to male contraception” (United Therapeutics Corporation, priority 2002, published 2004).
# Where two headings read alike, the source gives them in different places.
# How the values were obtained:
# [1] = tested on: ganglioside GM1 on the surface of mouse splenocytes; details: cited from earlier work
# [2] = tested on: testosterone, luteinising and follicle-stimulating hormones; test: Endocrinological assays; format: in vivo, mouse
# Description: Endocrinological assays—Following termination of mice by asphyxiation in CO2 and cervical dislocation, blood was obtained via cardiac puncture, which was allowed to clot at room temperature (RT). Serum was obtained by centrifugation, and stored at −80° C. until use. Testosterone, luteinising and follicle-stimulating hormones were measured by methods well-known in the art (Huhtaniemi, I., Nikula, H. & Rannikko, S. (1985) J Clin Endocrinol Metab 61, 698-704; Haavisto, A. M., Pettersson, K., Bergendahl, M., Perheentupa, A., Roser, J. F. & Huhtaniemi, I. (1993) Endocrinology 132, 1687-91; van Casteren, J. I., Schoonen, W. G. & Kloosterboer, H. J. (2000) Biol Reprod 62, 886-94.)
# alpha-glucosidase 1 = target: T1, alpha-glucosidase 1 (Homo sapiens, UniProt Q13724); details: involved in N-glycan synthesis; cited from earlier work
# T1 sequence (Q13724 1-837): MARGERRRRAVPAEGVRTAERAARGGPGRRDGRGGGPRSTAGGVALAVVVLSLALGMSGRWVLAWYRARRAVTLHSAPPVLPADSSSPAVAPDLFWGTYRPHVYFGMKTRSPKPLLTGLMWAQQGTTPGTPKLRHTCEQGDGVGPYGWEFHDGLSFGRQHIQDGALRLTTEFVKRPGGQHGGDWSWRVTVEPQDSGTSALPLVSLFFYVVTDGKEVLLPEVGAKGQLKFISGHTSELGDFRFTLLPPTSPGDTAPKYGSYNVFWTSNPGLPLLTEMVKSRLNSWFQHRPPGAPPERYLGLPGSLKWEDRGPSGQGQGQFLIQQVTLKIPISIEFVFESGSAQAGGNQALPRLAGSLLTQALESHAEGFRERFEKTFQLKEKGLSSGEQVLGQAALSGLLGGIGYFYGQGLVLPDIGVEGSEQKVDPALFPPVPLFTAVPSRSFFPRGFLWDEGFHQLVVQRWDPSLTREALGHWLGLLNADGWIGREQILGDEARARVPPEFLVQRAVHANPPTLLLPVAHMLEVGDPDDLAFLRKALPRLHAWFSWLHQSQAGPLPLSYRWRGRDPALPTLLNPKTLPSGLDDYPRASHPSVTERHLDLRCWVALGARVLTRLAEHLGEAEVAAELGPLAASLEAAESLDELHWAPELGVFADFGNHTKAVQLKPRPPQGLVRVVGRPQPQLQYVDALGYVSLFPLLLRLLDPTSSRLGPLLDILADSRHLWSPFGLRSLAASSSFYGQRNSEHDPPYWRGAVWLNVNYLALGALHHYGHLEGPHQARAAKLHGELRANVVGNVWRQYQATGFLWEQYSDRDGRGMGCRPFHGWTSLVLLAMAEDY
# female C57BL/6 mice = test: Mating assay, fertility of treated female mice; format: in vivo, mouse; details: 1200 mg/kg/day for five weeks, four-day mating with untreated males, n=5
# Description: (§1) Mating assays—To assess the fertility of male mice that were fed on a diet containing an iminosugar, a mating assay was used: typically six week old male C57BL/6 mice in groups of three were administered diet containing compound for five weeks (unless otherwise specified), after which each of them was caged with four untreated female C57BL/6 mice, and provided with standard pelleted chow. Females were at least 11 weeks old, and age-matched in each experiment. The male was removed from the females after 7 or 9 days, depending on the experiment; the females were monitored for vaginal mucous plugs, pregnancies, and, if any, litter sizes. To study any effect on female fertility six-week-old female C57BL/6 mice were treated with NB-DNJ for five weeks, after which each of them was caged with a non-treated age-matched male for four days.
# Following a four-day mating period with untreated males, 100% of treated (n=5) as well as of non-treated females (n=4) became pregnant; these mice had 6.2±2.7 and 7.8±1.0 pups per litter, respectively.
# [3] = tested on: female mice of strain 129; test: Fertility of treated female mice of strain 129; format: in vivo, mouse; details: 2400 mg/kg day for 12 weeks, 15 week-old females, caged with untreated males
# Description: NB-DNJ was administered at 2400 mg/kg day for 12 weeks to 15 week-old female mice of strain 129. After this, the drug was withdrawn and the females were caged with untreated males of strain 129. […] The mice in this experiment were heterozygous for a disruption in the gene encoding ceramide galactosyltransferase. These mice are phenotypically indistinguishable from wild-type 129 mice and reproduce normally (Coetzee et al., (1996), Cell, 86:209-219).
# [4] = Body, gonad and organ weights of treated mice; format: in vivo, mouse
# [5] = tested on: mouse models with impaired GSL degradation; details: in vivo; cited from earlier work
# seminiferous tubules = test: Testis histology; format: in vivo, mouse; details: 50 mg/kg/day (FIG. 4B)
# Text: Histology and Scanning electronmicroscopy—Testes were obtained from mice perfused with 4% paraformaldehyde, 1% gluteraldehyde, kept in the fixative for two days, and transferred to 70% ethanol. Tissues were post-fixed with 2% osmium tetroxide, embedded in araldite, sectioned at 1 μm, and stained with Toluidine Blue. Sections were examined with a Zeiss Axioskop II, and images were acquired with an Axiocam camera, operated by Axiovision 3.0 software.
# male C57BL/6 mice = test: Mating assay, fertility of male mice; format: in vivo, mouse
# Text: Treatment of mice—Male C57BL/6 mice were housed under standard non-sterile conditions. The mice were provided with water ad lib. and prior to drug administration were fed a diet of pelleted mouse chow (expanded Rat and Mouse Chow 3, SDS Ltd.) To administer the compounds of the present invention, the mice were fed a diet of powdered mouse chow (expanded Rat and Mouse Chow 1, ground, SDS Ltd.) containing either NB-DNJ, NB-DGJ, NN-6-MeDGJ, or DNJ. The diet and compound (both as dry solids) were mixed thoroughly, stored at room temperature, and used within 7 days of mixing.
# as §1
# [6] = highest dose (2400 mg/kg/day), n=10
# [7] = 5 mg/kg per day, five weeks in diet
# [8] = 2400 mg/kg per day, taken off the drug after five weeks of treatment
compound,measurement,setting,value
"CCCCN1C[C@H](O)[C@@H](O)[C@H](O)[C@H]1CO [NB-DNJ, N-butyldeoxynojirimycin]",reduction of ganglioside GM1 levels,[1]; 600 mg/kg per day,10%
same,reduction of ganglioside GM1 levels,[1]; 2400 mg/kg per day,70%
same,"serum testosterone, FSH, LH and testicular testosterone","[2]; 2400 mg/kg/day, p<0.001",significant reduction
same,"serum testosterone, FSH, LH and testicular testosterone","[2]; 15, 150 or 1200 mg/kg/day",did not change
same,inhibition of alpha-glucosidase 1,alpha-glucosidase 1,potent inhibitor
same,females that became pregnant,female C57BL/6 mice,100%
same,pups per litter,female C57BL/6 mice,6.2±2.7
same,average litter size,[3],6 pups
same,pregnancy after drug withdrawal,[3],All females quickly became pregnant
same,weights of testes and epididymal compartments,[4]; 1200 and 2400 mg/kg/day,decreased proportionally to body weight
same,combined cauda epididymis/vas deferens weight,[4]; [6],43±7 % of control
same,whole body weight,[4]; [6],60±5 % of control
same,body or gonad weights,"[4]; low dose, 15-150 mg/kg/day",did not affect
same,therapeutic effect,[5],therapeutically effective
same,morphology of nuclei of mature spermatids,seminiferous tubules,"aberrant, heterogeneous morphology"
same,vacuolization in seminiferous tubules versus controls,seminiferous tubules,more extensive vacuolization
same,fertility,"male C57BL/6 mice; 1 mg/kg per day, five weeks in diet",did not affect
same,fertility (pregnancies per male),male C57BL/6 mice; [7],reduced their fertility
same,litter size,male C57BL/6 mice; [7],reduced
same,fertility,"male C57BL/6 mice; 15 mg/kg per day, five weeks in diet",completely infertile
same,"fertility, capacity to sire normal-sized litters","male C57BL/6 mice; 2400 mg/kg per day oral, one or two weeks of treatment, six-week old males",this capacity was maintained
same,"infertility, length of treatment needed","male C57BL/6 mice; 2400 mg/kg per day oral, weekly increments",infertile after at least three weeks
same,litter size after withdrawal,male C57BL/6 mice; [8],normal-sized litters
same,regain of fertility after withdrawal,male C57BL/6 mice; [8],regained fertility in the fourth week
same,fertility,"male C57BL/6 mice; 13 week old males, 2400 mg/kg per day for five weeks",complete sterility
same,frequency of post-coital vaginal mucous plugs (mating behavior),"male C57BL/6 mice; NB-DNJ dose range, five weeks in diet",not affected
same,dose required for induced infertility,"male C57BL/6 mice; oral, male mice",at least 15 mg/kg/day
